# Target: T1, 11-beta-hydroxysteroid dehydrogenase type 2 (Homo sapiens, UniProt P80365)
# T1 sequence (P80365 whole entry): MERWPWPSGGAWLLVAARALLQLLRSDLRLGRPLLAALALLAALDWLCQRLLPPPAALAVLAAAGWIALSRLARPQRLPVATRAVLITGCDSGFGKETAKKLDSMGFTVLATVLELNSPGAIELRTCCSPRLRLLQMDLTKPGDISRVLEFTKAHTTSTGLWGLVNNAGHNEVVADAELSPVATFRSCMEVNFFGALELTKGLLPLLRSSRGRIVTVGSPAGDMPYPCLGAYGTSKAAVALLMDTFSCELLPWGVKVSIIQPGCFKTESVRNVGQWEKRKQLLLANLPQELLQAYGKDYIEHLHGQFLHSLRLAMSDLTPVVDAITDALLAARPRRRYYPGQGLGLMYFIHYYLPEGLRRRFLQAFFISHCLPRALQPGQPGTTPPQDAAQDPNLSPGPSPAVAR
# Experiment: HSD2 Activity
# Description: Human descending colon epithelial stem cells were cultured as 3D organoids in accordance with Sato et al Gastroenterology. 2011 November; 141(5): 1762-72. Organoids were dissociated using TrypLE Express (life technologies) and plated on 96-well transwells (corning) in supplemented basal media (SBM-advanced DMEM/F12 containing 10 mM HEPES, 1:100 Glutamax, 1:100 penicillin/streptomycin, 1:100N2, 1:50 B27, 1 mM N-acetylcysteine, 10 nM [Leu15]-gastrin I) containing 100 ng/mL Wnt3A (W), 50 ng/mL EGF (E), 100 ng/mL Noggin (N), 500 ng/mL RSpondinl (R), 500 nM A83-01 (S) and 2.5 uM thiazovivin (T). Cultures were differentiated using SBM containing ENRA and 30 nM aldosterone on day 3, and cultures were used for assay on day 6 or 7. Compounds were diluted in DMSO and serial dilutions prepared by titrating in DMSO. Compounds were then diluted into DMEM/F12. Transwell plates containing descending colon cultures were washed twice with DMEM/F12 and compound was added to the apical compartment. Cells were incubated with test compound for 30 minutes at 37 C., 5% CO2 to equilibrate across the cell membrane. […] Cortisol levels were measured using a cortisol HTRF assay kit as described by the manufacturer (Cisbio). Concentration-response curves were then plotted and IC50 (and pIC50) values were determined using least squares non-linear regression.
structure (smiles),measurement,value
"Cc1oc(=O)oc1COC(=O)[C@]1(C)[C@@H](OC(=O)CN(C)C)CC[C@@]2(C)[C@H]1CC[C@]1(C)[C@@H]2C(=O)C=C2[C@@H]3C[C@@](C)(C(=O)O)CC[C@]3(C)CC[C@]21C [US11858959, Compound 290-2]",IC50,251 nM

# — BindingDB's records for patent US11858959 (Ardelyx, 2024)
